Data on 13 compounds can be found in publication PMC6362118, “Pharmacophore-guided discovery of CDC25 inhibitors causing cell cycle arrest and tumor regression” (Scientific Reports, 2019).

One may read the remaining activity as what remains of the control signal, in per cent. Broadly, the IC50 is the concentration at which inhibition is half-maximal.

The subject of test [1] is HeLa cells. As to the kind of experiment: Flow cytometric analysis of cell cycle progression (DNA content) in HeLa cells. The format is cell-based. Particulars: for effect on the G1/S transition: HeLa synchronized at G2/M, 10 μM added in mid-G1, analysed 12 h post-release; for effect on cell cycle distribution (DNA content): asynchronous HeLa cells, 10 μM, 15 h. The protocol:
Reactions were started by addition of the substrate OMFP (0.1 mM). Assays 69 were carried out at room temperature in duplicate or triplicate using transparent-bottom, 70 V-shaped 96 well plates and read at defined intervals on a Molecular Devices 71 SpectraMax microplate reader (ex: 490 nm / em: 525 nm). IC50 and kinetic parameters 72 calculated from Lineweaver-Burk double-reciprocal plots of the data were obtained using 73 GraphPad Prism software. 74 75 Cell culture - Wild-type HeLa and Kyoto HeLa cells stably expressing mCherry-H2B 76 were maintained in DMEM+L-Glutamine (Gibco, Life Technologies, USA) 77 supplemented with 5% fetal calf serum (FCS) (Gibco) and penicillin-streptomycin (100 […] A549 and Colo741 were grown and maintained like HeLa 79 cells but with 10% FCS. HCT116 were maintained in McCoy's medium supplemented 80 with 10% FCS and penicillin-streptomycin. U2OS-Tet-OFF cells expressing HA-CDC25 81 were grown and maintained in DMEM+L-Glutamine, 10% Tet-free FCS and penicillin- 82 streptomycin in the presence or the absence of 4 μg/ml tetracycline (Sigma, T7660). 83 84 Cell synchronization - Cell synchronization was performed by double thymidine block- 85 release protocol 2 or nocodazole treatment 3 and verified by flow cytometry. 86 87 Cell viability assays - Compounds viability upon 48h treatment with the compounds was 88 assessed as described 4. Data were plotted with Prism 7® and analyzed by non-linear 89 regression. Comparison of single curve fitting to all data set within an experiment was 90 performed with the extra sum-of-squares F-test to determine P values. 91 92 Western blotting - Cell lysis and immunoblot analysis were performed as previously 93 described 5. […] Cells were washed with PBS, resuspended […] To 100 quantify phosphorylation of CDK1 at Tyr15 and H2AX at S139, cells were harvested and 101 examined as described 6. Samples were measured on an AttuneTM NxT Cytometer 102 (ThermoFisher Scientific, Carlsbad, CA, USA) and data were analyzed with FlowJo® 103 software v10 (FlowJo, LLC, Ashland, OR, USA). 104 105 Real Time qRT-PCR - Organoids were lysed in Tri-Reagent (Sigma) as previously 106 described 7 and total RNA was isolated as described by manufacturer's instructions. For […] 108 High Fidelity cDNA Synthesis kit (Roche). Real-time quantitative PCR reactions were 109 performed in three independent biological replicates, each with technical triplicate, using 110 the Applied Biosystems SYBR Green Kit and monitored by the ABI Prism 7900HT 111 system (Applied Biosystem). The following primers were used: 112 Lgr5: Forward [NT] and Reverse 5'- […] 114 Lysozyme: Forward [NT] and Reverse 5'- 115 [NT]3' 116 Cryptdin: Forward [NT] and Reverse 5'- 117 [NT]-binding protein (TBP): Forward [NT] and 119 Reverse [NT] 120 […] 122 amplification curves and the melting temperature analysis of the final amplification […] 4

Test [2] has as its target T1, CDC25A (Homo sapiens, UniProt P30304).
T1 construct: GST (pGEX vector) (N); made in house; host or cells: E. coli BL21
T1 sequence (P30304 1-524): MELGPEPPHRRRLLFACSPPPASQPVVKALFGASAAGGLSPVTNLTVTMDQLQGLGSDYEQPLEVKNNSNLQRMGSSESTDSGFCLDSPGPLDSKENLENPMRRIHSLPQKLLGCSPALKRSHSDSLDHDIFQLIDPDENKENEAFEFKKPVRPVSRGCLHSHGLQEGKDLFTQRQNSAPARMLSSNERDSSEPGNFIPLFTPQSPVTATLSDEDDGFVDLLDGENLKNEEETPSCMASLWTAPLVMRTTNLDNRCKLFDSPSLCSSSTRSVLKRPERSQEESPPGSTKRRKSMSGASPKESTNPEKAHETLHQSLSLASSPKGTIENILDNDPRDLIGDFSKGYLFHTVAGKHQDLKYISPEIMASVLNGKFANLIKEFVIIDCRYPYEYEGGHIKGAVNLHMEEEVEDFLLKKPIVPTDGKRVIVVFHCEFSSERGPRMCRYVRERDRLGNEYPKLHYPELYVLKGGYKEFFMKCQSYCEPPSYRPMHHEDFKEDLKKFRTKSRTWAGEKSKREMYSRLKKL
As to the kind of experiment: Enzymatic assay (OMFP substrate) on recombinant CDC25A. The format is biochemical. Conditions: for remaining activity at 20 µM: read-out: % remaining activity ± SD (Table S2, second round of selection); for IC50: dose-response on recombinant CDC25A. On the procedure: 57 UPD compounds were dissolved in DMSO at 10 mM stock concentration and stored in
60 Expression and purification of CDC25 phosphatases - CDC25A (kind gift of I.
61 Hoffmann, Heidelberg, Germany), CDC25B and CDC25C (kind gift of B. Gabrielli,
62 Queensland, Australia) in pGEX were expressed in E. coli BL21 cells and purified on 1
63 ml Glutathione Sepharose 4 Fast Flow columns as described 1.
65 Enzymatic assays - CDC25A, CDC25B and CDC25C were appropriately diluted in 10
66 mM Tris-HCl pH 8.0, 50 mM NaCl and assayed in 20 mM Tris-HCl pH 8.0, 75 mM
67 NaCl, 0.5 mM EGTA, 1 mM DTT, 0.1 mg/ml BSA and defined concentrations of
68 compounds. Reactions were started by addition of the substrate OMFP (0.1 mM). Assays
69 were carried out at room temperature in duplicate or triplicate using transparent-bottom,
70 V-shaped 96 well plates and read at defined intervals on a Molecular Devices
71 SpectraMax microplate reader (ex: 490 nm / em: 525 nm). IC50 and kinetic parameters
72 calculated from Lineweaver-Burk double-reciprocal plots of the data were obtained using
73 GraphPad Prism software. […]

The subject of test [3] is HCT116 tumors. As to the kind of experiment: HCT116 tumor xenograft in zebrafish embryos. Conditions: 10 µM, 3 dpi. The format is in vivo. On the procedure:
Implantation of HCT116 cells into zebrafish embryos were carried out essentially as previously described. Briefly, HCT116 cells were cultured in McCoy’s medium supplemented with 10% FCS and penicillin/streptomycin until ~80% confluence, then labeled for 30 min at 37 °C in 6 μg/mL 1,1′-dioctadecyl-3,3,3′,3′-tetramethylindocarbocyanine perchlorate (DiI, Sigma) in PBS followed by washing 3x in PBS. Labeled cells were implanted in the perivitelline space of 48 hours post-fertilization (hpf) wildtype (AB) zebrafish embryos, kept from the 1-cell stage in 1-phenyl-2-thiourea (PTU)-containing E3-water. […] As control, embryos were incubated in PTU-E3 with 0.1% DMSO (vehicle). Tumor-bearing embryos were incubated at 36 °C for three days and the change in tumor volume was evaluated as the size of the tumors at three days post-implantation (3 dpi) relative to the size immediately after implantation (0 dpi). Metastasis was evaluated at 3 dpi as the number of tumor cells present in the caudal hematopoietic plexus, the main metastatic site for tumors implanted in the perivitelline space.

Test [4] has as its system HeLa cells. As to the kind of experiment: Cell viability assay on HeLa cells. The format is cell-based. Particulars: Homo sapiens, 48h treatment. The protocol:
75 Cell culture - Wild-type HeLa and Kyoto HeLa cells stably expressing mCherry-H2B
76 were maintained in DMEM+L-Glutamine (Gibco, Life Technologies, USA)
77 supplemented with 5% fetal calf serum (FCS) (Gibco) and penicillin-streptomycin (100
78 U/ml - 100 µg/ml) (Gibco). […]
87 Cell viability assays - Compounds viability upon 48h treatment with the compounds was
88 assessed as described 4. Data were plotted with Prism 7® and analyzed by non-linear
89 regression. Comparison of single curve fitting to all data set within an experiment was
90 performed with the extra sum-of-squares F-test to determine P values. […]

Test [5] deals with HeLa cells. The test is described as follows: Time-lapse microscopy of mitosis in synchronized HeLa cells. Particulars: synchronized HeLa Kyoto cells (mCherry-H2B, GFP-α-tubulin), 5 μM. The format is cell-based. The protocol: Cells were grown in 35 mm CellView™ cell culture dishes with glass bottom (# 627870, Greiner-BioOne) at a density of 2.5 × 10^5 cells/ml in a humidified cell incubator maintained at 37 °C and 5% CO2. Cell were viewed by phase contrast microscopy with a 10x objective using an Olympus IX 81 motorized inverted microscope (Olympus, Hamburg, Germany) equipped with external temperature control chamber and CO2 bottle to maintain cells at 37 °C with 5% CO2. Transition through mitosis was documented by acquisition of four frames per hour over a period of 14 h using a CCD camera (Orca AG, Hamamatsu) and cellR® software (Olympus). HeLa-Kyoto cells (mCherry-H2B/EGFP-α-tubulin) were visualized by fluorescence microscopy with an Olympus IX 81 microscope using a 10x objective and selecting Ex. = 492 ± 18 nm/Em. = 535 ± 50 nm for the green channel and Ex. = 572 ± 23 nm/Em. = 645 ± 75 nm for the red channel.

[6] abbreviates: compound 20 µM, relative to DMSO control.

`O=C1C=C(c2ccc(O)c(O)c2O)C(=O)c2ccccc21` [UPD-596, 2-(2,3,4-trihydroxyphenyl)-1,4-naphthoquinone]: in test [1], the “effect on the G1/S transition” value is “ineffective” and the “effect on cell cycle distribution (DNA content)” value (from here on “effect … (DNA content)”) is “increase of the G1 population”. Besides, the remaining activity at 20 µM in test [2] (setting [6]) turned out to be 0%.

On to `O=C1C=C(c2ccc(O)cc2O)C(=O)c2ccccc21` [UPD-597, 2-(2,4-dihydroxyphenyl)-1,4-naphthoquinone], for which the remaining activity at 20 µM in test [2] (setting [6]) was 3.1 ± 0.3%.

Regarding `O=C(O)c1ccc2c(c1)C(=O)c1c(O)ccc(O)c1C2=O` [UPD-724, 1,4-dihydroxy-6-anthraquinonecarboxylic acid], the remaining activity at 20 µM in test [2] (setting [6]) came to 98.9 ± 1.4%.

`O=C1C=CC(=O)c2c(O)cccc21` [UPD-738, 5-hydroxynaphtho-1,4-quinone]: the “metastasis (tumor cells in caudal hematopoietic plexus)” value in test [3] is “did not appear to be significant”. Further, in test [1], the “effect on the G1/S transition” value is on record as “effectively blocked cells in G1” and the “effect … (DNA content)” value is given as “increase of the G1 population”. In test [4], the IC50 stood at 4.4 µM. The remaining activity at 20 µM in test [2] (setting [6]) is 5.9 ± 0.1%.

As to `O=C1C=C(c2ccc(O)c(O)c2O)C(=O)c2c(O)cccc21` [UPD-786, 8-hydroxy-2-(2,3,4 trihydroxyphenyl) naphthalene-1,4-dione], the “effect … (DNA content)” value in test [1] was “increase of the G1 population”. The half-inhibitory concentration (IC50) in test [4] stood at 6.5 µM; in test [2], 0.89 µM. Moreover, in test [2] (setting [6]), the remaining activity at 20 µM came to 0%.

`O=C1C=C(c2c(O)cc(O)cc2O)C(=O)c2c(O)cccc21` [UPD-788, 8-hydroxy-2-(2,4,6-trihydroxyphenyl)naphthalene-1,4-dione]: the remaining activity at 20 µM in test [2] (setting [6]) was determined as 70.1 ± 2%.

As for `COc1ccc(C2=CC(=O)c3cccc(O)c3C2=O)c(OC)c1` [UPD-790, 8-hydroxy-2-(2,4-dimethoxyphenyl)naphthalene-1,4-dione], the “effect … (DNA content)” value in test [1] is listed as “accumulation of cells at G2/M”. Besides, in test [1] (double-thymidine synchronized HeLa, 10 μM added 5 h upon release, analysed 12 h post-release), the “effect on the G2/M transition” value is reported as “accretion of the G2/M peak”. Also, the “execution of mitosis at low dose (time-lapse)” value in test [5] was “failed attempt to round up and execute mitosis, which was followed by membrane blebbing and death”. In test [4], this compound gave a 50% inhibitory concentration (IC50) of 1.41 µM. In test [2] (setting [6]), the remaining activity at 20 µM worked out at 5.6 ± 1.2%.

Regarding `Cc1ccc(SC2=CC(=O)c3cccc(O)c3C2=O)cc1` [UPD-793, 3-(p-tolylthio)juglone], in test [1], the “effect on the G1/S transition” value was “effectively blocked cells in G1” and the “effect … (DNA content)” value is “increase of the G1 population”. Further, the “% remaining activity ± SD (Table S2, second round of selection)” value in test [2] (setting [6]) is given as 1.0 ± 0.1%. In addition, the IC50 in test [2] was 0.92 µM.

For `O=C1C=C(N2CCCCC2)C(=O)c2c(O)cccc21` [UPD-797, 8-hydroxy-2-(piperidin-1-yl)naphthalene-1,4-dione], the remaining activity at 20 µM in test [2] (setting [6]) came to 8.5 ± 0.1%.

On to `O=C1C=C(N2CCOCC2)C(=O)c2c(O)cccc21` [UPD-798, N-(5-hydroxy-1,4-naphthoquinon-3-yl)morpholine], for which the remaining activity at 20 µM in test [2] (setting [6]) turned out to be 41.4 ± 0.4%.

Regarding `Nc1ccc(N)c2c1C(=O)C=CC2=O` [UPD-1382, 5,8-diaminonaphthalene-1,4-dione], in test [2] (setting [6]), the remaining activity at 20 µM was 94.4 ± 0.6%.

As to `Cc1cc(O)c2c(n1)C(=O)C=CC2=O` [UPD-1416, 4-Hydroxy-2-methylquinoline-5,8-dione], in test [2] (setting [6]), the remaining activity at 20 µM came out at 4.1%.

`Cc1ccc2c(n1)C(=O)C=CC2=O` [UPD-1419, 2-methyl-5,8-dihydro-5,8-dioxoquinoline]: the remaining activity at 20 µM in test [2] (setting [6]) was 1.9 ± 0.3%.
